Assay results: patent US20110118262A1, “Pyrrolidinyl and Piperidinyl Compounds Useful as NHE-1 Inhibitiors” (BOEHRINGER INGELHEIM INTERNATIONAL GMBH, priority 2008, published 2011)

What follows are compounds tested against T1, NHE-1 (Homo sapiens, UniProt P19634) (assay: Evaluation of NHE-1 Inhibition (pHi) in HT-29 cells). Details: BCECF dye, 50% inhibition of the intracellular pH recovery, read-out: NHE1 HT29 pHi IC50.
T1 construct: endogenous in cells; host or cells: HT-29
Type: cell-based
Outline: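 Intracellular pH measured with BCECF in HT-29 cells after 24 h culture. Cells dye-loaded 30 min at 37° C, then acid-loaded with NH4Cl-containing choline buffer (pH 7.5) for 30 min at RT. Compounds added on an FDSS6000 fluorescence reader.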

T1 sequence (P19634 whole entry): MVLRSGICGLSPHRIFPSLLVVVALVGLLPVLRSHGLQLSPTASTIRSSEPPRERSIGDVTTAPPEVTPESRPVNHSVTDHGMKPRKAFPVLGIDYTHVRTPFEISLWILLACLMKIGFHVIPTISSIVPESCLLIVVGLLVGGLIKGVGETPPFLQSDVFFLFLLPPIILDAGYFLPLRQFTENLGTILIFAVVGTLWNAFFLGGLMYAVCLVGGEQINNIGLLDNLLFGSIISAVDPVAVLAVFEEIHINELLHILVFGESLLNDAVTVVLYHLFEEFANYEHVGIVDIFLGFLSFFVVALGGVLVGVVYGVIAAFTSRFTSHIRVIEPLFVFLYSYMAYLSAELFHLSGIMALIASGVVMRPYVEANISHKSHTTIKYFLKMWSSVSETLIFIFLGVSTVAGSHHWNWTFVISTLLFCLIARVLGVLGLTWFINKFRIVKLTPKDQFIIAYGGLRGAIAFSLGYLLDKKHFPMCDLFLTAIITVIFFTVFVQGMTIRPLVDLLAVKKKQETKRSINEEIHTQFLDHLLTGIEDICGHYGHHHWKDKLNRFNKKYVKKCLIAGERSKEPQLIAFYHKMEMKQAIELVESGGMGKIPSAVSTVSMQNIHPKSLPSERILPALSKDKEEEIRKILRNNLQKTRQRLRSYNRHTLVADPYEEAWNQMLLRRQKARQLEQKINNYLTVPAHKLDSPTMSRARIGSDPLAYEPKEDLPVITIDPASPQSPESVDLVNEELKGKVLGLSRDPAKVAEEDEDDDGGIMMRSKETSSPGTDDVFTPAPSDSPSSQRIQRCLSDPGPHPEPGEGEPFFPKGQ

Structure (SMILES) | IC50 [nM]
CSCCC(N)C(=O)N1CCC(c2ccc(C(=O)NC(=N)N)cc2C(F)(F)F)CC1 (stereo not drawn) [N-{4-[1-(2-Amino-4-methylsulfanyl-butyryl)-piperidin-4-yl]-3-trifluoromethyl-benzoyl}-guanidine] | 13
CS(=O)(=O)c1ccccc1Oc1cc(C(=O)N2CCC(c3ccc(C(=O)NC(=N)N)cc3C(F)(F)F)CC2)ccn1 [N-(4-{1-[2-(2-Methanesulfonyl-phenoxy)-pyridine-4-carbonyl]-piperidin-4-yl}-3-trifluoromethyl-benzoyl)-guanidine] | 76
C[C@@](N)(Cc1ccccc1)C(=O)N1CCC(c2ccc(C(=O)NC(=N)N)cc2C(F)(F)F)CC1 [(R)-N-{4-[1-(-2--Amino-2-methyl-3-phenyl-propionyl)-piperidin-4-yl]-3-trifluoromethyl-benzoyl}-guanidine] | 24
CN(C)c1cccc(C(=O)N2CCC(c3ccc(C(=O)NC(=N)N)cc3C(F)(F)F)CC2)c1 [N-{4-[1-(3-Dimethylamino-benzoyl)-piperidin-4-yl]-3-trifluoromethyl-benzoyl}-guanidine] | 77
CCC(=O)N1CCC(c2cc(C)c(C(=O)NC(=N)N)cc2S(C)(=O)=O)CC1 [N-{5-methanesulfonyl-4-[1-propionyl-piperidin-4-yl]-2-methyl-benzoyl}-guanidine] | 16
CN1CCC(C(=O)N2CCC(c3ccc(C(=O)NC(=N)N)cc3C(F)(F)F)CC2)CC1 [N-{4-[1-(1-Methyl-piperidine-4-carbonyl)-piperidin-4-yl]-3-trifluoromethyl-benzoyl}-guanidine] | 0.3
Cc1cc(C2CCN(C(=O)CN(C)C)CC2)c(C(F)(F)F)cc1C(=O)NC(=N)N [N-{4-[1-(2-dimethylamino-acetyl)-piperidin-4-yl]-2-methyl-5-trifluoromethyl-benzoyl}-guanidine] | 6
N=C(N)NC(=O)c1ccc(C2CCN(C(=O)c3ccncc3)CC2)c(C(F)(F)F)c1 [N-{4-[1-(Pyridine-4-carbonyl)-piperidin-4-yl]-3-trifluoromethyl-benzoyl}-guanidine] | 9
COc1cc(C2CCN(C(=O)[C@@](C)(O)c3ccccc3)CC2)c(C(F)(F)F)cc1C(=O)NC(=N)N [(S)-N-{4-[1-(2-Hydroxy-2-phenyl-propionyl)-piperidin-4-yl]-2-methoxy-5-trifluoromethyl-benzoyl}-guanidine] | 200
N=C(N)NC(=O)c1ccc(C2CCN(C(=O)[C@@H](N)c3ccccc3)CC2)c(C(F)(F)F)c1 [(S)-N-{4-[1-(-2-Amino-2-phenyl-acetyl)-piperidin-4-yl]-3-trifluoromethyl-benzoyl}-guanidine] | 21
COc1ccc(C(=O)N2CCC(c3ccc(C(=O)NC(=N)N)cc3C(F)(F)F)CC2)cn1 [N-{4-[1-(6-Methoxy-pyridine-3-carbonyl)-piperidin-4-yl]-3-trifluoromethyl-benzoyl}-guanidine] | 58
N=C(N)NC(=O)c1ccc(C2CCN(C(=O)c3cn4ccccc4n3)CC2)c(C(F)(F)F)c1 [N-{4-[1-(Imidazo[1,2-a]pyridine-2-carbonyl)-piperidin-4-yl]-3-trifluoromethyl-benzoyl}-guanidine] | 17
COc1cc(C2CCN(C(=O)c3ccccn3)CC2)c(C(F)(F)F)cc1C(=O)NC(=N)N [N-{2-Methoxy-4-[1-(pyridine-2-carbonyl)-piperidin-4-yl]-5-trifluoromethyl-benzoyl}-guanidine] | 43
COc1ccc(C(=O)N2CCC(c3ccc(C(=O)NC(=N)N)cc3C(F)(F)F)CC2)cc1 [N-{4-[1-(4-Methoxy-benzoyl)-piperidin-4-yl]-3-trifluoromethyl-benzoyl}-guanidine] | 195
CN(C)CCC(=O)N1CCC(c2ccc(C(=O)NC(=N)N)cc2C(F)(F)F)CC1 [N-{4-[1-(3-Dimethylamino-propionyl)-piperidin-4-yl]-3-trifluoromethyl-benzoyl}-guanidine] | 10
COc1ccc(CC(=O)N2CCC(c3ccc(C(=O)NC(=N)N)cc3C(F)(F)F)CC2)cc1 [N-(4-{1-[2-(4-Methoxy-phenyl)-acetyl]-piperidin-4-yl}-3-trifluoromethyl-benzoyl)-guanidine] | 140
Cn1cncc1C[C@H](N)C(=O)N1CCC(c2ccc(C(=O)NC(=N)N)cc2C(F)(F)F)CC1 [(S)-N-(4-{1-[2-Amino-3-(3-methyl-3H-imidazol-4-yl)-propionyl]-piperidin-4-yl}-3-trifluoromethyl-benzoyl)-guanidine] | 22

Structure (SMILES) | IC50 [nM]
N=C(N)NC(=O)c1ccc(C2CCN(C(=O)C3(N)CCC3)CC2)c(C(F)(F)F)c1 [N-{4-[1-(1-Amino-cyclobutanecarbonyl)-piperidin-4-yl]-3-trifluoromethyl-benzoyl}-guanidine] | 31
N=C(N)NC(=O)c1ccc(C2CCN(C(=O)c3cccc4ccccc34)CC2)c(C(F)(F)F)c1 [N-{4-[1-(Naphthalene-1-carbonyl)-piperidin-4-yl]-3-trifluoromethyl-benzoyl}-guanidine] | 260
Cc1cc(C2CCN(C(=O)c3cccnc3)CC2)c(C(F)(F)F)cc1C(=O)NC(=N)N [N-{2-Methyl-4-[1-(pyridine-3-carbonyl)-piperidin-4-yl]-5-trifluoromethyl-benzoyl}-guanidine] | 30
N=C(N)NC(=O)c1ccc(C2CCN(C(=O)c3ccc[nH]3)C2)c(C(F)(F)F)c1 (stereo not drawn) [N-{4-[1-(1H-Pyrrole-2-carbonyl)-pyrrolidin-3-yl]-3-trifluoromethyl-benzoyl}-guanidine] | 19
CC(=O)N1CCC(c2ccc(C(=O)NC(=N)N)cc2C(F)(F)F)CC1 [N-[4-(1-Acetyl-piperidin-4-yl)-3-trifluoromethyl-benzoyl]-guanidine] | 9
CC(C)(C)C(=O)N1CCC(c2ccc(C(=O)NC(=N)N)cc2C(F)(F)F)CC1 [N-{4-[1-(2,2-Dimethyl-propionyl)-piperidin-4-yl]-3-trifluoromethyl-benzoyl}-guanidine] | 68
N=C(N)NC(=O)c1ccc(C2CCN(C(=O)c3ccc(C(F)(F)F)cc3)CC2)c(C(F)(F)F)c1 [N-{3-Triuoromethyl-4-[1-(4-trifluoromethyl-benzoyl)-piperidin-4-yl]-benzoyl}-guanidine] | 337
N=C(N)NC(=O)c1ccc(C2CCN(C(=O)c3cccc4ncccc34)CC2)c(C(F)(F)F)c1 [N-{4-[1-(Quinoline-5-carbonyl)-piperidin-4-yl]-3-trifluoromethyl-benzoyl}-guanidine] | 46
N=C(N)NC(=O)c1ccc(C2=CCN(C(=O)c3ccc(-n4ccnc4)cc3)CC2)c(C(F)(F)F)c1 [N-{4-[1-(4-Imidazol-1-yl-benzoyl)-1,2,3,6-tetrahydro-pyridin-4-yl]-3-trifluoromethyl-benzoyl}-guanidine] | 33
COc1cc(C(=O)N2CCC(c3ccc(C(=O)NC(=N)N)cc3C(F)(F)F)CC2)ccc1-c1cccnc1 [N-{4-[1-(3-Methoxy-4-pyridin-3-yl-benzoyl)-piperidin-4-yl]-3-trifluoromethyl-benzoyl}-guanidine] | 66
N=C(N)NC(=O)c1ccc(C2CCN(C(=O)C3(N)CCCCC3)CC2)c(C(F)(F)F)c1 [N-{4-[1-(1-Amino-cyclohexanecarbonyl)-piperidin-4-yl]-3-trifluoromethyl-benzoyl}-guanidine] | 33
N=C(N)NC(=O)c1ccc(C2CCN(C(=O)C3CCCNC3)CC2)c(C(F)(F)F)c1 (stereo not drawn) [N-{4-[1-(Piperidine-3-carbonyl)-piperidin-4-yl]-3-trifluoromethyl-benzoyl}-guanidine] | 17
COC(=O)c1ccc(C(=O)N2CCC(c3ccc(C(=O)NC(=N)N)cc3C(F)(F)F)CC2)cc1 [4-[4-(4-Guanidinocarbonyl-2-trifluoromethyl-phenyl)-piperidine-1-carbonyl]-benzoic acid methyl ester] | 183
N=C(N)NC(=O)c1ccc(C2CCN(C(=O)c3ccc(-n4cccn4)cc3)CC2)c(C(F)(F)F)c1 [N-{4-[1-(4-Pyrazol-1-yl-benzoyl)-piperidin-4-yl]-3-trifluoromethyl-benzoyl}-guanidine] | 88
N=C(N)NC(=O)c1ccc([C@H]2CCN(C(=O)c3ccc(F)cc3)C2)c(C(F)(F)F)c1 [(R)-N-{4-[1-(4-fluoro-benzoyl)-pyrrolidin-3-yl]-3-trifluoromethyl-benzoyl}-guanidine] | 24
N=C(N)NC(=O)c1ccc(C2CCN(C(=O)c3ccccc3Cl)CC2)c(C(F)(F)F)c1 [N-{4-[1-(2-Chloro-benzoyl)-piperidin-4-yl]-3-trifluoromethyl-benzoyl}-guanidine] | 119
